# According to US20050202111A1, “Anti-Parkinson's disease pharmaceutical and method of use” (priority 2004, published 2005):
# Assays:
# complex-I = conditions: mouse, in vivo; cited from earlier work
# [1] = tested on: N-methyl-4-phenyl-1,2,3,6-tetrahydropyridine induced dopaminergic neurodegeneration; conditions: in vivo; cited from earlier work
# mitochondrial complex-I = experiment: In vivo effect on brain mitochondrial complex-I activity (NADH oxidation); design: species or system Sprague Dawley rats; conditions: intraperitoneally for 2 weeks, brain mitochondrial (P2) fraction
# Experimental: Various doses of MPX were administered intraperitoneally to Sprague Dawley rats for 2 weeks, while a control group was treated with saline. The rats were sacrificed one hour after the last injection, and the mitochondrial (P2) fraction was prepared from the dissected rat brains. Mitochondrial complex-I activity was based on the oxidation of NADH (5.6 mg in 1 ml water) measured at 340 nm (Ramsay et al. 1986. “Inhibition of mitochondrial NADH dehydrogenase by pyridine derivatives and its possible relation to experimental and idiopathic parkinsonism,” Biochem Biophys Res Commun 135:269-275 (this references is hereby incorporated by reference in its entirety)).
smiles,measurement,setting,value
CC(=O)N[C@@H](CS)C(=O)O [N-acetylcysteine],age-related decrease in complex-I activity,complex-I,can protect against age-related decrease in complex-I activity
O=C(O[C@@H]1Cc2c(O)cc(O)cc2O[C@@H]1c1cc(O)c(O)c(O)c1)c1cc(O)c(O)c(O)c1 [(−)-epigallocatechin-3-gallate],dopaminergic neurodegeneration,[1],"prevents N-methyl-4-phenyl-1,2,3,6-tetrahydropyridine induced dopaminergic neurodegeneration"
"N[C@@H](Cc1ccc(O)c(O)c1)C(=O)O [Levodopa, L-3,4-dihydroxyphenylalanine]",mitochondrial complex-I activity,mitochondrial complex-I,significantly inhibitory effect on complex-I
